The values below come from ChEMBL document CHEMBL1156427, “Hepatitis C virus NS5A is a direct substrate of casein kinase I-alpha, a cellular kinase identified by inhibitor affinity chromatography using specific NS5A hyperphosphorylation inhibitors” (J Biol Chem, 2007).

Molecules are shown by their SMILES.

The target in test [1] is Mitogen-activated protein kinase 8 (Homo sapiens, UniProt P45983). Kind of test: Inhibition of human JNK1.
Test [2] addresses Casein kinase II subunit alpha (Homo sapiens, UniProt P68400). The test is described as follows: Inhibition of human CK2.
In test [3] the target is Mitogen-activated protein kinase 9 (Homo sapiens, UniProt P45984). The test is described as follows: Inhibition of human JNK2.
Chain of Mitogen-activated protein kinase 9 (P45984 whole entry): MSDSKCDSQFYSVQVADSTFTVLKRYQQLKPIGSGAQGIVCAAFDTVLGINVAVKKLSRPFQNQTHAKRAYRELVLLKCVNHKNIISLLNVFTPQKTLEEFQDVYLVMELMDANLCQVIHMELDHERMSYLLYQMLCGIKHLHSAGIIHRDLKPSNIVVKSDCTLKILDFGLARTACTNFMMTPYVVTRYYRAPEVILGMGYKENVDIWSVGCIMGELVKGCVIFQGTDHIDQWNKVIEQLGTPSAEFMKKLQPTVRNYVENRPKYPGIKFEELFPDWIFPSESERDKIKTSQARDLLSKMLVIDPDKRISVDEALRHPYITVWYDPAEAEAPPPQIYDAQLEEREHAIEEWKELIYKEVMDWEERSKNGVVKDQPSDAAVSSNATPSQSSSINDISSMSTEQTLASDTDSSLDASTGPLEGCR
Test [4] has as its target Ribosomal protein S6 kinase alpha-3 (Homo sapiens, UniProt P51812). Kind of test: Inhibition of human RSK2.
In test [5] the target is MAP kinase p38 (Homo sapiens, UniProt O15264+Q15759+Q16539+P53778). The test is described as follows: Inhibition of human p38 MAPK. Format: protein assay.
The target of test [6] is Casein kinase I isoform alpha (Homo sapiens, UniProt P48729). The test is described as follows: Inhibition of human CKIalpha.
Chain of Casein kinase I isoform alpha (P48729 whole entry, canonical isoform): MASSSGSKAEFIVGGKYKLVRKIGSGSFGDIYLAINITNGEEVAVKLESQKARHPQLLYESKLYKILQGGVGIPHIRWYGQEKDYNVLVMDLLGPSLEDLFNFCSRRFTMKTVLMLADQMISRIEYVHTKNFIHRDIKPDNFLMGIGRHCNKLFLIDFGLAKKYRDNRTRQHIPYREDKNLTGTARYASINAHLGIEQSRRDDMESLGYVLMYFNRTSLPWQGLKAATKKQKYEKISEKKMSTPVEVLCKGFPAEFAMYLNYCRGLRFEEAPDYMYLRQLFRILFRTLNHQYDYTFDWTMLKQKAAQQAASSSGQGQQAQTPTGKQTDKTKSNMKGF
The target of test [7] is Casein kinase I isoform delta (Homo sapiens, UniProt P48730). The test is described as follows: Inhibition of human CKIdelta.
Chain of Casein kinase I isoform delta (P48730 whole entry, canonical isoform): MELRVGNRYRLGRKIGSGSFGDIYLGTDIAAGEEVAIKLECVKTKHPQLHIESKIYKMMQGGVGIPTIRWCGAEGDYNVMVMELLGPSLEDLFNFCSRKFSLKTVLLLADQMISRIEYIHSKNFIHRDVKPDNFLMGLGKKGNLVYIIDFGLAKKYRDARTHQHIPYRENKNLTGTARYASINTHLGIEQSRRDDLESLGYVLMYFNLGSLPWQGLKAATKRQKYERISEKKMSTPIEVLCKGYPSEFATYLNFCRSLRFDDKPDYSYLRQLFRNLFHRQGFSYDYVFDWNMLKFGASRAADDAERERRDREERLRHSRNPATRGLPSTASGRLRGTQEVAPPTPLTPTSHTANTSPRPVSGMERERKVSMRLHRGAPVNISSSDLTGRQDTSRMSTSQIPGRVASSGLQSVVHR
A short description of test [8]: Inhibition of human PKA.

Chain of Ribosomal protein S6 kinase alpha-3 (P51812 whole entry): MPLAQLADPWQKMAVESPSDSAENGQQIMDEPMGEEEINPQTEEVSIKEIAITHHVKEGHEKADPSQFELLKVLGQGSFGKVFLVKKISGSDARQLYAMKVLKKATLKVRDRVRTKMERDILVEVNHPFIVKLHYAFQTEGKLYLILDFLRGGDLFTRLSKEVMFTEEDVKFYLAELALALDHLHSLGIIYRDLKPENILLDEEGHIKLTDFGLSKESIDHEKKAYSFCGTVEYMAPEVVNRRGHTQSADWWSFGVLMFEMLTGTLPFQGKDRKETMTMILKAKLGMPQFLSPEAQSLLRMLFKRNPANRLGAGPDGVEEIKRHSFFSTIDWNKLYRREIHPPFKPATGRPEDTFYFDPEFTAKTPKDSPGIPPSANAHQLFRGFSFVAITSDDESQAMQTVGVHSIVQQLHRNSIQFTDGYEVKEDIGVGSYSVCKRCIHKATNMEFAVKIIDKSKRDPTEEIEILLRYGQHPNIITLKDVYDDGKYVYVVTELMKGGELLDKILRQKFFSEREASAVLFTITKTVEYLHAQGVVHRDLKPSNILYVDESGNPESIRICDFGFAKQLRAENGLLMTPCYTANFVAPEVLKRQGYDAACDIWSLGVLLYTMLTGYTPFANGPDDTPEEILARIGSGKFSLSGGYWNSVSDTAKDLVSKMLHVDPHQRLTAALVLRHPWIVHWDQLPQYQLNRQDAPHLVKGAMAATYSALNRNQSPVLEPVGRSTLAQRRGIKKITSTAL
Chain of Mitogen-activated protein kinase 8 (P45983 whole entry): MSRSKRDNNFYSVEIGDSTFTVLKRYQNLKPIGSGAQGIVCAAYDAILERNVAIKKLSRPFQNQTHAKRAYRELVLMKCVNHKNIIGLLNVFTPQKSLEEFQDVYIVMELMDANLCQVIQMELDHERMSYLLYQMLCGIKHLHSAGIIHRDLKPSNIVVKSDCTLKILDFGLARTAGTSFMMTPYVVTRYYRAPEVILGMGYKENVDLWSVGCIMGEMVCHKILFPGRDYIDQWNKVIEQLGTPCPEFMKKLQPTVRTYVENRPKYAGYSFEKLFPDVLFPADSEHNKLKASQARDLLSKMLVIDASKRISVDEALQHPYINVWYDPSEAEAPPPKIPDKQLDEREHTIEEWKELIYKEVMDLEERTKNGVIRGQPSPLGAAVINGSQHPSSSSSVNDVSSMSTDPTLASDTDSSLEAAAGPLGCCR
Chain of Casein kinase II subunit alpha (P68400 whole entry): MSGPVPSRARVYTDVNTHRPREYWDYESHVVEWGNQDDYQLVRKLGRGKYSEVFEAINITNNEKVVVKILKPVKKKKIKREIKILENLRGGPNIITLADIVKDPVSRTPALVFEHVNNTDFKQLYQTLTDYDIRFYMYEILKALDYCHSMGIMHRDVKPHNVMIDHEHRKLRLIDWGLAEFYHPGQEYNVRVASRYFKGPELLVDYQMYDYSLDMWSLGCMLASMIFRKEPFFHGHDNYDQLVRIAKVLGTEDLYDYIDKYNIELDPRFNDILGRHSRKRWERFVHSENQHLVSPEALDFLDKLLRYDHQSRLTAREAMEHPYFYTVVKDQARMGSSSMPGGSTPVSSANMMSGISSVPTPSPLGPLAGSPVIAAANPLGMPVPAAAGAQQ

As for `CC1CCC(c2nc(-c3ccc(F)cc3)c(-c3ccncc3)[nH]2)CC1` (stereo unspecified), the IC50 was 175 µM in test [1]; more than 100 µM in test [2]; 166 µM in test [3]; 39 µM in test [4]; “<= 0.024 uM” in test [5]; 1.3 µM in test [6]. For the same molecule, the IC50 was determined as 0.4 µM in test [7] and 2 µM in test [8].

For the molecule `CNc1nccc(-c2nc(C3CCNCC3)[nH]c2-c2cccc(C(F)(F)F)c2)n1`, the IC50 is 385 µM in test [1]; more than 100 µM in test [2]; 404 µM in test [3]; 76 µM in test [4]; “<= 0.028 uM” in test [5]; 1.1 µM in test [6]. The IC50 in test [7] is 1.4 µM; in test [8], 260 µM.
